Experimental data taken from the supplement of paper PMC10307832.

Columns and labels:
Experiment in all cases: relative viability (nuclei count vs DMSO), 5 days (fraction); higher = more cells survive
[1] = compound: CC1=CC=C(C=C1)C(=O)CN2C3=C(CCCC3)SC2=N [Pifithrin_alpha] + CC(C)C[C@H](NC(=O)[C@H](Cc1ccccc1)NC(=O)c1cnccn1)B(O)O [Bortezomib] (partner 0.002 µM)
In short: (§1)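 Cells from lung cancer lines were seeded into 1536-well plates and, one day later, dosed by pin tool. Treatments were either a single drug or a fixed dose of an anchor drug with five library-drug doses (not always all listed) in √10 steps. After 5 days, nuclei were stained in a one-step fixation (final 0.05% Triton X-100, 1% formaldehyde, 1 ug/ml Hoechst) and counted on 4× images, and relative viability is the treated-to-vehicle nuclei ratio, as the median of duplicate plates.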

[2] = compound: CC1=CC=C(C=C1)C(=O)CN2C3=C(CCCC3)SC2=N [Pifithrin_alpha] + COc1cc2c(Oc3ccc(NC(=O)C4(C(=O)Nc5ccc(F)cc5)CC4)cc3F)ccnc2cc1OCCCN1CCOCC1 [Foretinib] (partner 0.25 µM)
In short: as §1

Axitinib + Tozasertib = compound: CNC(=O)c1ccccc1Sc1ccc2c(/C=C/c3ccccn3)n[nH]c2c1 [Axitinib] + Cc1cc(Nc2cc(N3CCN(C)CC3)nc(Sc3ccc(NC(=O)C4CC4)cc3)n2)n[nH]1 [Tozasertib] (partner 0.1 µM)
In short: as §1

Bemcentinib + Vorinostat = compound: Nc1nc(Nc2ccc3c(c2)CC[C@@H](N2CCCC2)CC3)nn1-c1cc2c(nn1)-c1ccccc1CCC2 [Bemcentinib] + O=C(CCCCCCC(=O)Nc1ccccc1)NO [Vorinostat] (partner 1 µM)
In short: as §1

Cell Line | relative viability ([1]; first compound 1 µM) | relative viability ([1]; first compound 3.162 µM) | relative viability ([1]; first compound 10 µM) | relative viability ([1]; first compound 31.62 µM) | relative viability ([1]; first compound 100 µM) | relative viability ([2]; first compound 1 µM) | relative viability ([2]; first compound 3.162 µM) | relative viability ([2]; first compound 10 µM) | relative viability ([2]; first compound 31.62 µM) | relative viability ([2]; first compound 100 µM) | relative viability (Axitinib + Tozasertib; first compound 0.005 µM) | relative viability (Axitinib + Tozasertib; first compound 0.01581 µM) | relative viability (Axitinib + Tozasertib; first compound 0.05 µM) | relative viability (Axitinib + Tozasertib; first compound 0.1581 µM) | relative viability (Axitinib + Tozasertib; first compound 0.5 µM) | relative viability (Bemcentinib + Vorinostat; first compound 0.04 µM) | relative viability (Bemcentinib + Vorinostat; first compound 0.1265 µM) | relative viability (Bemcentinib + Vorinostat; first compound 0.4 µM) | relative viability (Bemcentinib + Vorinostat; first compound 1.265 µM) | relative viability (Bemcentinib + Vorinostat; first compound 4 µM)
LCLC-103H | 1.12 | 1.08 | 0.902 | 0.831 | 1.25 | 0.729 | 0.787 | 0.84 | 0.514 | 0.824 | 0.52 | 0.551 | 0.432 | 0.52 | 0.519 | 0.774 | 0.826 | 0.8 | 0.783 | 0.883
LOU-NH91 | 0.409 | 0.475 | 0.445 | 0.414 | 0.503 | 0.841 | 0.874 | 0.935 | 0.868 | 0.874 | 0.682 | 0.54 | 0.746 | 0.694 | 0.827 | 0.845 | 0.871 | 0.999 | 0.917 | 0.945
LU99A | 1.09 | 1.24 | 1.19 |  | 1.24 | 0.772 | 0.866 | 0.861 | 0.398 | 0.776 | 0.27 | 0.266 | 0.264 | 0.369 | 0.419 | 0.472 | 0.482 | 0.468 | 0.477 | 0.436
LXF-289 | 1.01 | 1.01 | 1.02 | 0.813 | 0.962 | 1.02 | 1.05 | 0.995 | 0.888 | 1.01 | 0.253 | 0.175 | 0.219 | 0.253 | 0.317 | 0.658 | 0.799 | 0.662 | 0.796 | 0.763
NCI-H23 | 0.917 | 0.978 | 1.06 | 0.61 | 0.875 | 0.9 | 1.19 | 1.08 |  | 0.872 | 0.421 | 0.431 | 0.442 | 0.44 | 0.8 | 0.525 | 0.604 | 0.675 | 0.437 | 0.545
NCI-H322M | 1.19 | 1.07 | 1.29 | 1.26 | 1.03 | 0.91 | 1.03 | 0.964 | 0.929 | 0.839 | 0.453 | 0.435 | 0.432 | 0.437 | 0.527 | 0.863 | 0.931 | 0.836 | 0.952 | 0.899
NCI-H441 | 0.245 | 0.821 | 0.442 | 0.448 | 0.503 | 0.974 | 1.17 | 1.04 |  | 0.925 | 0.746 | 0.585 | 0.658 | 0.789 | 0.796 | 0.691 | 0.824 | 0.735 | 0.87 | 0.756
NCI-H460 | 1.51 | 1.14 | 0.661 |  | 0.438 | 1.06 | 0.974 | 0.933 | 0.492 | 0.631 | 0.394 | 0.515 | 0.525 | 0.413 | 0.624 | 0.696 | 0.981 | 1.21 | 0.838 | 0.73
